Laboratory results taken from PubChem BioAssay (NCI).
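Test compounds were applied to cells in 96-well plates for 48 hours at 5 doses. GI50 is the concentration that inhibits growth by half. TGI is the concentration that stops growth completely.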

Tests used:
Assay in all cases: NCI-60 cell line screen, 48 h
HT29 colon = system: HT29 colon
BT-549 breast = system: BT-549 breast
MCF7 breast = system: MCF7 breast
OVCAR-5 ovarian = system: OVCAR-5 ovarian
EKVX NSCLC = system: EKVX NSCLC
M14 melanoma = system: M14 melanoma
HCT-116 colon = system: HCT-116 colon
HOP-62 NSCLC = system: HOP-62 NSCLC
OVCAR-3 ovarian = system: OVCAR-3 ovarian
SNB-19 CNS = system: SNB-19 CNS
NCI-H226 lung = system: NCI-H226 lung
PC-3 prostate = system: PC-3 prostate
COLO 205 colon = system: COLO 205 colon
NCI-H522 lung = system: NCI-H522 lung
DU-145 prostate = system: DU-145 prostate
SK-MEL-2 melanoma = system: SK-MEL-2 melanoma
OVCAR-8 ovarian = system: OVCAR-8 ovarian
UO-31 renal = system: UO-31 renal
RXF 393 renal = system: RXF 393 renal
HL-60(TB) leukemia = system: HL-60(TB) leukemia
MDA-MB-231 breast = system: MDA-MB-231 breast
HCC-2998 colon = system: HCC-2998 colon
KM12 colon = system: KM12 colon
SN12C renal = system: SN12C renal
OVCAR-4 ovarian = system: OVCAR-4 ovarian
SK-OV-3 ovarian = system: SK-OV-3 ovarian
A498 renal = system: A498 renal
T-47D breast = system: T-47D breast
SF-295 CNS = system: SF-295 CNS
NCI/ADR-RES ovarian = system: NCI/ADR-RES ovarian
HS 578T breast = system: HS 578T breast
SK-MEL-28 melanoma = system: SK-MEL-28 melanoma
HOP-92 NSCLC = system: HOP-92 NSCLC
HCT-15 colon = system: HCT-15 colon
IGROV1 ovarian = system: IGROV1 ovarian
SK-MEL-5 melanoma = system: SK-MEL-5 melanoma
LOX IMVI melanoma = system: LOX IMVI melanoma
K-562 leukemia = system: K-562 leukemia
SW-620 colon = system: SW-620 colon
UACC-257 melanoma = system: UACC-257 melanoma
ACHN renal = system: ACHN renal
NCI-H23 lung = system: NCI-H23 lung
SF-268 CNS = system: SF-268 CNS
A549 NSCLC = system: A549 NSCLC
SF-539 CNS = system: SF-539 CNS
RPMI-8226 leukemia = system: RPMI-8226 leukemia
UACC-62 melanoma = system: UACC-62 melanoma
CCRF-CEM leukemia = system: CCRF-CEM leukemia
NCI-H460 lung = system: NCI-H460 lung
CAKI-1 renal = system: CAKI-1 renal
MOLT-4 leukemia = system: MOLT-4 leukemia
MDA-MB-435 = system: MDA-MB-435
786-0 renal = system: 786-0 renal
SR leukemia = system: SR leukemia
MALME-3M melanoma = system: MALME-3M melanoma
SNB-75 CNS = system: SNB-75 CNS
U251 CNS = system: U251 CNS
TK-10 renal = system: TK-10 renal

SMILES: CCNCCCn1c2c(c3cc(OC)c(OC)cc3c1=O)C(=O)c1cc(OC)cnc1-2
- GI50 (HT29 colon): 0.462 µM
- TGI (HT29 colon): 2.77 µM
- GI50 (BT-549 breast): 1.32 µM
- TGI (BT-549 breast): 25.5 µM
- GI50 (MCF7 breast): 0.12 µM
- TGI (MCF7 breast): 13 µM
- GI50 (OVCAR-5 ovarian): 3.89 µM
- TGI (OVCAR-5 ovarian): 35.1 µM
- GI50 (EKVX NSCLC): 15.7 µM
- TGI (EKVX NSCLC): > 58.6 µM
- GI50 (M14 melanoma): 0.517 µM
- TGI (M14 melanoma): 25.8 µM
- GI50 (HCT-116 colon): 0.376 µM
- TGI (HCT-116 colon): 6.59 µM
- GI50 (HOP-62 NSCLC): 0.213 µM
- TGI (HOP-62 NSCLC): 2.64 µM
- GI50 (OVCAR-3 ovarian): 1.4 µM
- TGI (OVCAR-3 ovarian): 18.7 µM
- GI50 (SNB-19 CNS): 0.529 µM
- TGI (SNB-19 CNS): > 51.3 µM
- GI50 (NCI-H226 lung): 1.28 µM
- TGI (NCI-H226 lung): > 35.8 µM
- GI50 (PC-3 prostate): 1.84 µM
- TGI (PC-3 prostate): 26.8 µM
- GI50 (COLO 205 colon): 1.38 µM
- TGI (COLO 205 colon): > 53.5 µM
- GI50 (NCI-H522 lung): 0.197 µM
- TGI (NCI-H522 lung): 19.6 µM
- GI50 (DU-145 prostate): 0.639 µM
- TGI (DU-145 prostate): 15 µM
- GI50 (SK-MEL-2 melanoma): > 38.9 µM
- TGI (SK-MEL-2 melanoma): > 75.9 µM
- GI50 (OVCAR-8 ovarian): 1.2 µM
- TGI (OVCAR-8 ovarian): 20.1 µM
- GI50 (UO-31 renal): 0.615 µM
- TGI (UO-31 renal): > 47.2 µM
- GI50 (RXF 393 renal): 1.03 µM
- TGI (RXF 393 renal): 4.77 µM
- GI50 (HL-60(TB) leukemia): 1.04 µM
- TGI (HL-60(TB) leukemia): 11.8 µM
- GI50 (MDA-MB-231 breast): 2.66 µM
- TGI (MDA-MB-231 breast): 20.3 µM
- GI50 (HCC-2998 colon): 1.67 µM
- TGI (HCC-2998 colon): 29.5 µM
- GI50 (KM12 colon): 3.33 µM
- TGI (KM12 colon): 50 µM
- GI50 (SN12C renal): 0.837 µM
- TGI (SN12C renal): > 51.4 µM
- GI50 (OVCAR-4 ovarian): 2.56 µM
- TGI (OVCAR-4 ovarian): 18.7 µM
- GI50 (SK-OV-3 ovarian): 0.471 µM
- TGI (SK-OV-3 ovarian): 2.06 µM
- GI50 (A498 renal): 28 µM
- TGI (A498 renal): > 58.2 µM
- GI50 (T-47D breast): 0.711 µM
- TGI (T-47D breast): > 100 µM
- GI50 (SF-295 CNS): 0.159 µM
- TGI (SF-295 CNS): 11.2 µM
- GI50 (NCI/ADR-RES ovarian): 1.04 µM
- TGI (NCI/ADR-RES ovarian): 27.2 µM
- GI50 (HS 578T breast): > 43.9 µM
- TGI (HS 578T breast): > 70.3 µM
- GI50 (SK-MEL-28 melanoma): 48.5 µM
- TGI (SK-MEL-28 melanoma): > 63.1 µM
- GI50 (HOP-92 NSCLC): 4.03 µM
- TGI (HOP-92 NSCLC): > 60.3 µM
- GI50 (HCT-15 colon): 1.39 µM
- TGI (HCT-15 colon): 19.7 µM
- GI50 (IGROV1 ovarian): 1.02 µM
- TGI (IGROV1 ovarian): > 52.8 µM
- GI50 (SK-MEL-5 melanoma): 0.794 µM
- TGI (SK-MEL-5 melanoma): 3.3 µM
- GI50 (LOX IMVI melanoma): 0.313 µM
- TGI (LOX IMVI melanoma): 2.32 µM
- GI50 (K-562 leukemia): 0.256 µM
- TGI (K-562 leukemia): 22.9 µM
- GI50 (SW-620 colon): 0.358 µM
- TGI (SW-620 colon): 19.3 µM
- GI50 (UACC-257 melanoma): 1.98 µM
- TGI (UACC-257 melanoma): > 55 µM
- GI50 (ACHN renal): 0.341 µM
- TGI (ACHN renal): 29.3 µM
- GI50 (NCI-H23 lung): 0.736 µM
- TGI (NCI-H23 lung): 7.18 µM
- GI50 (SF-268 CNS): 0.765 µM
- TGI (SF-268 CNS): > 63.1 µM
- GI50 (A549 NSCLC): 2.1 µM
- TGI (A549 NSCLC): 33.8 µM
- GI50 (SF-539 CNS): 0.432 µM
- TGI (SF-539 CNS): 2.14 µM
- GI50 (RPMI-8226 leukemia): 0.44 µM
- TGI (RPMI-8226 leukemia): 4.86 µM
- GI50 (UACC-62 melanoma): 0.388 µM
- TGI (UACC-62 melanoma): 8.21 µM
- GI50 (CCRF-CEM leukemia): 0.122 µM
- TGI (CCRF-CEM leukemia): 23.3 µM
- GI50 (NCI-H460 lung): 0.153 µM
- TGI (NCI-H460 lung): 5.11 µM
- GI50 (CAKI-1 renal): 0.339 µM
- TGI (CAKI-1 renal): > 50 µM
- GI50 (MOLT-4 leukemia): 0.0953 µM
- TGI (MOLT-4 leukemia): 8.08 µM
- GI50 (MDA-MB-435): 1.99 µM
- TGI (MDA-MB-435): > 55.6 µM
- GI50 (786-0 renal): 0.718 µM
- TGI (786-0 renal): 6.4 µM
- GI50 (SR leukemia): 0.0685 µM
- TGI (SR leukemia): 3.29 µM
- GI50 (MALME-3M melanoma): 10.9 µM
- TGI (MALME-3M melanoma): 36.6 µM
- GI50 (SNB-75 CNS): 0.474 µM
- TGI (SNB-75 CNS): 3.45 µM
- GI50 (U251 CNS): 0.267 µM
- TGI (U251 CNS): 9.16 µM
- GI50 (TK-10 renal): > 50.4 µM
- TGI (TK-10 renal): > 66.4 µM
